{
  "source": "patent EP0118036A1",
  "about": "“Biologically active ketone derivative, preparation and use” (THE WELLCOME FOUNDATION LIMITED, priority 1983, dated 1984)",
  "key": {"[1]": {"assay": "Comparative bulk storage stability of salts of 2-tert-butylamino-3'-chloropropiophenone", "type": "physicochemical", "conditions": "bulk salt, result in words", "source_text": "The propiophenone moiety breaks down into hydroxyketones, a diketone and meta-chlorobenzoic acid. It is of course an important desideratum for : a pharmaceutical product that it should have a reasonably good bulk stability in order to avoid or reduce wastage resulting from decomposition of the active moiety during the period between its synthesis and its use in formulating the final dosage form.\nSmall amounts of various salts of 2-tert-butylamino-3'-chloropropiophenone were each placed in a clean borosilicate glass vial which was sealed with a Teflon-faced rubber closure. The samples were then placed in an oven maintained at 70°C (except for the formate which was stored at 75°C) and visual comparisons were made over a period of 1-3 days. The observations are recorded in the following Table I: […]"}, "[2]": {"conditions": "free base; cited from earlier work"}, "[3]": {"tested_on": "tetrabenazine induced sedation", "assay": "Antagonism of tetrabenazine induced sedation (modified Vernier method)", "type": "in vivo, Mice", "conditions": "for Percent Antagonism of Tetrabenazine Induced Sedation: CD1 male mice, 35 mg/kg tetrabenazine hydrochloride ip", "experimental": "Antagonism of tetrabenazine induced sedation was measured using a modification of the method of Vernier, et al., First Hahnemann Symposium on Psychosomatic Medicine, ed. Nodim and Moyer, pub. Lea and Febiger, Philadelphia, 1962.\nMice, three groups of 12 CD1 males each, were injected intraperitoneally (ip) with a solution of 2-tert-butylamino-3'-chlorogropiophenone hydrochloride (Cpd A) or 2-tert-butylamino-3'-chloropropiophenone maleate (Cpd B) or with saline. Thirty minutes later each of the mice was injected ip with a solution containing 35 mg/kg tetrabenazine hydrochloride. Thirty minutes after the injection of tetrabenazine each mouse was examined for its level of exploratory behavior which was scored on a modification of the arbitrary scale defined by Vernier, et al. The dose of tetrabenazine used was sufficient to cause 90 to 100 percent of the mice to remain motionless even when placed in a new environment. In the test results reported 100 percent would represent total reversal of tetrabenazine effects.\nThe doses of Cpd B are equivalent to the corresponding doses of Cpd A on a molar basis."}, "[4]": {"assay": "Storage stability of tablets (Examples 3, 4, 10A, 10B)", "type": "physicochemical", "conditions": "summary in words of Table II", "experimental": "In order to compare the storage stability of the tablets of Examples 3 and 4 with similar tablets containing the hydrochloride salt of 2-tert-butylamino-3'-chloropropiophenone, tablets having the following compositions were prepared in an analogous manner to that described in Examples 3 and 4:-\nThe four sets of tablets (3, 4, 10A and 10B) were tested for stability. Testing was carried out on tablets: • (a) stored at 50°C in closed bottles; and • (b) stored at 37°C in open bottles under a relative humidity of 75%.\nThe results are summarised in the following Table II in which the data are assay values expressed as percentage of labeled strength of the active salt, and \"mo.\" indicates month: […]"}, "[5]": {"assay": "Stability of salts with conventional pharmaceutical carriers or excipients", "type": "physicochemical", "conditions": "tableting excipients, particularly magnesium stearate and stearic acid; result in words", "source_text": "It will be appreciated that, in order for the salts to be used in medical therapy, it is necessary to formulate them into pharmaceutical compositions suitable for administration to the patient. The formulation of such compositions entails the admixture or contacting of the salts with various pharmaceutical carriers or excipients. Examples of solid pharmaceutical compositions which are mentioned in British Specification 1,340,032 are tablets, cachets, capsules and suppositories. Of these various types of composition, tablets and capsules are particularly preferred forms as it is generally desired to administer the active compound by the oral route. […] The formulation of the salts of the free base in capsules also presents problems because gelatin, which is commonly used to make the capsule shell, is hydrophilic and therefore creates a humid environment within the capsule, which has a deleterious effect on the 2-tert-butylamino-3'chloropropiophenone salt present in the capsule. It will therefore be appreciated that considerable difficulty arose in finding a salt of 2-tert-butylamino-3'-chloropropiophenone which has sufficient stability when formulated in pharmaceutical compositions.\nA further advantage of the maleate salt is that it is much less corrosive than, for example, the hydrochloride salt which tends to corrode apparatus used in its preparation and formulation. […]"}, "Charles River CD1 mice": {"tested_on": "Charles River CD1 mice", "assay": "14-day oral (gavage) toxicity in mice", "type": "in vivo", "conditions": "260 mg/kg per day for 14 days, gavage in 0.5 percent carboxymethylcellulose, four males and four females", "experimental": "2-Tert-butylamino-3'-chloropropiophenone maleate was administered by gavage in 0.5 percent carboxymethylcellulose to Charles River CD1 mice (four males and four females) at a dose of 260 mg/kg per day for 14 days."}},
  "note": "Where a name gives a salt, the structure may show the parent alone.",
  "data": [
    {"smiles": "CC(NC(C)(C)C)C(=O)c1cccc(Cl)c1", "note": "(stereo not drawn) [napthalenesulphonate monohydrate]", "values": [
      {"measurement": "stability upon storage", "setting": "[1]", "result": "unstable upon storage"}
    ]},
    {"smiles": "CC(NC(C)(C)C)C(=O)c1cccc(Cl)c1", "note": "(stereo not drawn) [2-tert-butylamino-3'-chloropropiophenone]", "values": [
      {"measurement": "pKa", "setting": "[2]", "result": "8.5-9"}
    ]},
    {"smiles": "CC(NC(C)(C)C)C(=O)c1cccc(F)c1", "note": "(stereo not drawn) [3'-fluoro analogue]", "values": [
      {"measurement": "pKa", "setting": "[2]", "result": "8.5-9"}
    ]},
    {"smiles": "CC(NC(C)(C)C)C(=O)c1cccc(Cl)c1", "note": "(stereo not drawn) [Cpd A, 2-tert-butylamino-3'-chlorogropiophenone hydrochloride]", "values": [
      {"measurement": "Percent Antagonism of Tetrabenazine Induced Sedation", "setting": "[3]; dose 12.5 mg/kg (ip)", "result": 17.5, "unit": "%"},
      {"measurement": "Percent Antagonism of Tetrabenazine Induced Sedation", "setting": "[3]; dose 25 mg/kg (ip)", "result": 50, "unit": "%"},
      {"measurement": "Percent Antagonism of Tetrabenazine Induced Sedation", "setting": "[3]; dose 50 mg/kg (ip)", "result": 62.5, "unit": "%"},
      {"measurement": "stability in the formulated tablets", "setting": "[4]", "result": "limited stability"},
      {"measurement": "stability in association with conventional pharmaceutical carriers and excipients", "setting": "[5]", "result": "limited stability"}
    ]},
    {"smiles": "CC(NC(C)(C)C)C(=O)c1cccc(Cl)c1.O=C(O)/C=C\\C(=O)O", "note": "(stereo not drawn) [Cpd B, 2-tert-butylamino-3'-chloropropiophenone maleate]", "values": [
      {"measurement": "Percent Antagonism of Tetrabenazine Induced Sedation", "setting": "[3]; dose 16.1 mg/kg (ip)", "result": 27.5, "unit": "%"},
      {"measurement": "Percent Antagonism of Tetrabenazine Induced Sedation", "setting": "[3]; dose 32.2 mg/kg (ip)", "result": 62.5, "unit": "%"},
      {"measurement": "Percent Antagonism of Tetrabenazine Induced Sedation", "setting": "[3]; dose 64.4 mg/kg (ip)", "result": 60, "unit": "%"},
      {"measurement": "antidepressant activity in the tetrabenazine-induced sedation test", "setting": "[3]; rodents, result in words", "result": "good antidepressant activity"},
      {"measurement": "survival", "setting": "Charles River CD1 mice", "result": "All of the mice survived"},
      {"measurement": "stability in the formulated tablets", "setting": "[4]", "result": "relatively stable"},
      {"measurement": "stability in association with conventional pharmaceutical carriers and excipients", "setting": "[5]", "result": "advantageous stability characteristics"}
    ]}
  ]
}
